# Data published in patent US20120065221A1, “Extended Release Oral Pharmaceutical Compositions of 3-Hydroxy-N-Methylmorphinan and Method of Use” (priority 2009, published 2012).
# Where a name gives a salt, the structure may show the parent alone. Read-outs that look alike come from different tables or passages of the source.
# Tests used:
# 5-HT uptake = target: T1, 5-HT uptake (Rattus norvegicus, UniProt P31652); assay: 5-HT uptake assay; format: biochemical; settings: rat brain synaptosomes
# T1 construct: [^3H]5-HT incorporation into rat brain synaptosomes; from tissue; host or cells: rat brain synaptosomes
# T1 sequence (P31652 whole entry): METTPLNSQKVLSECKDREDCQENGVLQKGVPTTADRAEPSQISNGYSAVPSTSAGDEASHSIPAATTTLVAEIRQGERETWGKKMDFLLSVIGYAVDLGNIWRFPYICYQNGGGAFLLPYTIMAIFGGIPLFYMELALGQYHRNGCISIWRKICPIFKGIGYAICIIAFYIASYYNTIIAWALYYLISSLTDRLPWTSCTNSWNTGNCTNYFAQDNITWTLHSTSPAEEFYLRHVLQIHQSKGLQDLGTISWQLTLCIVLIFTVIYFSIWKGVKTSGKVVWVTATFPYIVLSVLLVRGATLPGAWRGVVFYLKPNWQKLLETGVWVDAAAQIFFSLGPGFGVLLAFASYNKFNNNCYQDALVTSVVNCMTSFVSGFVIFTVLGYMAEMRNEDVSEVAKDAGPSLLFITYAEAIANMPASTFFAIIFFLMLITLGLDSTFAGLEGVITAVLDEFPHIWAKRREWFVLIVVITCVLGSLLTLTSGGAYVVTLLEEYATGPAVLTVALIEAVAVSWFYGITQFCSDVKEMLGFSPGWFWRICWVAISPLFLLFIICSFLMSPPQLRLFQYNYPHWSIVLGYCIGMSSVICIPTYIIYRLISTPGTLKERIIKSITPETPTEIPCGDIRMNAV
# Method: (§1) This analysis was performed using validated proprietary software.
# norepinephrine uptake = target: T2, norepinephrine uptake (Rattus norvegicus, UniProt Q63380); assay: norepinephrine uptake assay; format: biochemical; settings: rat hypothalamus synaptosomes
# T2 construct: [^3H]NE incorporation into rat hypothalamus synaptomsomes; from tissue; host or cells: rat hypothalamus synaptosomes
# T2 sequence (Q63380 1-617): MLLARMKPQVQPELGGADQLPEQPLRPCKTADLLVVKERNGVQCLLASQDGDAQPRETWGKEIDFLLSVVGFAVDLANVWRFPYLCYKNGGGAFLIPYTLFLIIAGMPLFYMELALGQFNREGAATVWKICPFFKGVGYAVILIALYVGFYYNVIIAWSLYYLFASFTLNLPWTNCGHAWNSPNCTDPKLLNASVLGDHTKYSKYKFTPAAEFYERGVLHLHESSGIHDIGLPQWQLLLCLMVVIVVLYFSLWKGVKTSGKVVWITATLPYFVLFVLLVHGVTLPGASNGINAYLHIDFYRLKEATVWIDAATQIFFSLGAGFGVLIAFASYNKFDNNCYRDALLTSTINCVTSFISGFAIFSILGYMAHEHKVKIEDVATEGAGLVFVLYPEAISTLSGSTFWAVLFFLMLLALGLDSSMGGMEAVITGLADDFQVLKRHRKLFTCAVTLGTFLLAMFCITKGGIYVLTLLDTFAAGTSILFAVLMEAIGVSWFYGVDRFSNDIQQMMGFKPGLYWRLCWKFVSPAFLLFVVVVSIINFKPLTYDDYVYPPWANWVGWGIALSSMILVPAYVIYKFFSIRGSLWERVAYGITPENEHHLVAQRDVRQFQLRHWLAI
# Method: as §1
# NMDA = NMDA (Rattus norvegicus, UniProt P35439)
# Description: The specific ligand binding to the receptors was defined as the difference between the total binding and the nonspecific binding determined in the presence of an excess of unlabelled ligand. The results were expressed as a percent of control specific binding ((measured specific binding/control specific binding)×100) and as a percent inhibition of control specific binding (100-((measured specific binding/control specific binding)×100)) obtained in the presence of the test compounds. The IC50 values (concentration causing a half-maximal inhibition of control specific binding) and Hill coefficients (nH) were determined by non-linear regression analysis of the competition curves generated with mean replicate values using Hill equation curve fitting (Y=D+[(A−D)/(1+(C/C50)^nH)], where Y=specific binding, D=minimum specific binding, A=maximum specific binding, C=compound concentration, C50=IC50, and nH=slope factor). This analysis was performed using validated proprietary software. The inhibition constants (Ki) were calculated using the Cheng Prusoff equation Ki=IC50/(1+(L/KD)), where L=concentration of radioligand in the assay, and KD=affinity of the radioligand for the receptor). A scatchard plot was used to determine the Kd.
# [1] = system: serotonin reuptake and norepinephrine reuptake in rat brain synaptosomes; assay: norepinephrine and serotonin reuptake inhibition in rat brain synaptosomes; format: biochemical
# [2] = system: thermal nociception (hot-plate test); assay: 53° C. hot-plate test of thermal nociception; format: in vivo, rat; settings: compared with morphine
# Method: Methods: Male Sprague-Dawley rats (200-300 grams) were used. Antinociceptive activity was determined by the 53° C. hot-plate test. The rat is placed on a metal plate heated to 53° C., and the latency to withdrawing or shaking or licking of a paw, or escape attempts by jumping were documented. A cut-off latency of 15 sec was employed. Drugs were prepared administered after baseline measurements were performed. Behavioral testing was performed 30, 45 and 60 minutes after dosing. The levorphanol data for were compared to historical morphine data. […] Dose-response curves along with A50 values (i.e., dose calculated to produce a 50% MPE) and confidence intervals were determined from linear regression analysis of the log dose-effect curves. Significant differences in potency between 2 dose-response curves were determined by applying the Student's t-statistic to variances of the A50 values obtained for each dose-response curve. The antinociceptive effect of levorphanol was determined in the 53° C. rat hot-plate test 30, 45 and 60 minutes after dosing. Hot-plate latencies for each time-point were compared to the mean baseline response by ANOVA followed by the post-hoc Fisher's Least Significant Difference test.
# [3] = system: thermal nociception (tail flick test); assay: Tail flick test of thermal nociception; format: in vivo, rat; settings: compared with morphine
# Method: Objective: To evaluate the efficacy and potency of levorphanol and to compare its potency relative to that of morphine in a model of thermal nociception (tail flick test).
# Methods: Male Sprague-Dawley rats (200-300 grams) were used. Antinociceptive activity was determined by a significant increase in the latency to a reflexive flicking of the tail away from a radiant heat (infrared) source projected onto a small area on the ventral aspect of the tail. Baseline tail flick latencies were determined prior to any drug administration. The antinociceptive effect of levorphanol was determined 30, 45 and 60 minutes after dosing. […] Tail flick latencies for each time-point were compared to the mean baseline response by ANOVA followed by the post-hoc Fisher's Least Significant Difference test. A significant increase from the baseline was considered antinociceptive. […] Dose-response curves along with A50 values (i.e., dose calculated to produce a 50% MPE) and confidence intervals were determined from linear regression analysis of the log dose-effect curves. Significant differences in potency between 2 dose-response curves were determined by applying the Student's t-statistic to variances of the A50 values obtained for each dose-response curve.
# [4] = American Pain Society 2008, cited from earlier work
# [5] = cited from earlier work; for plasma half life: American Pain Society 2008; for half-life of oral levorphanol: Dixon et al 1983
# [6] = published pharmacokinetics of oral levorphanol (prescribing information, American Pain Society, Dixon et al)
# [7] = IC50, expressed as levorphanol base
# [8] = IC50, expressed as levorphanol tartrate
Structure (SMILES),IC50 (5-HT uptake; [7]) [µM],IC50 (5-HT uptake; [8]) [µM],IC50 (norepinephrine uptake; [7]) [µM],IC50 (norepinephrine uptake; [8]) [µM],inhibition (NMDA) [%],selectivity for serotonin reuptake inhibition over norepinephrine reuptake inhibition [1],duration of analgesic action [2],duration of analgesic action [3],dose equianalgesic to oral morphine sulfate 30 mg ([4]; acute pain) [mg],dose equianalgesic to oral morphine sulfate 30 mg ([4]; chronic pain) [mg],plasma half life [5] [h],plasma half life ([5]; after 1 week of dosing) [h],half-life of oral levorphanol ([5]; one patient),half-life of oral levorphanol ([5]; second patient) [h],mean time to steady state ([6]; using the average of the two reported values) [h],time to reach steady state therapeutic concentration upon repeated dosing ([6]; using the higher reported 30 hour half-life) [h],time to reach steady state therapeutic concentration upon repeated dosing ([6]; using the lower reported 16 hour half-life) [h]
"CN1CC[C@]23CCCC[C@H]2[C@H]1Cc1ccc(O)cc13 [Levorphanol Tartrate, morphinan-3-ol, 17-methyl-, [R—(R*,R*)]-2,3-dihydroxybutane-dioate (1:1) (salt) dihydrate]",0.0302,0.052,1.22,2.1,91,,,,,,,,,,,,
"CN1CC[C@]23CCCC[C@H]2[C@H]1Cc1ccc(O)cc13 [levorphanol, l 3-hydroxy-N-methylmorphinan]",,,,,,approximately 40 fold,shorter than that of morphine,shorter than that of morphine,4,1,12 to 16,90 to 120,approximately 16 hours,30,115,150,80
